Assay results reported in US20100297145A1, “Apoptosis promoter, cell proliferation inhibitor, prophylactic/therapeutic agent for cancer, screening method for the promoter, inhibitor or agent” (priority 2005, published 2010).

Key:
Format in all cases: cell-based, human
DU145/PCA-1 [1] = experiment: Paclitaxel-induced apoptosis quantified by flowcytometry
Experimental: (§1) The human prostate cancer cell line DU145 (purchased from ATCC) was cultured in RPMI medium (in the presence of 10% serum) and used. The human PCA-1 gene was cleaved out from a PCA-1 vector, and this was inserted into pIRES/Neo, which is a vector that encodes the neomycin resistance gene (hereinafter pIRES/Neo/PCA-1). […] For control, a clone (DU145/Neo) incorporating an empty vector, and cultured under the same conditions, was used.
A control cell line (DU145/Neo) and DU145/PCA-1 were stimulated with paclitaxel (100 nM); 48 hours later, apoptosis was quantified using flowcytometry.

DU145/PCA-1 [2] = experiment: Cell growth of PCA-1-overexpressing cell line with EGF stimulation (MTS reagent); conditions: EGF 10 ng/ml, 36 hours, serum-free, pretreatment with ERK inhibitor
Experimental: as §1
Experiments were performed using the MTS [(3-(4,5-dimethylthiazol-2-yl)-5-(3-carboxymethoxyphenyl)-2-(4-sulphonyl)-2H-tetrazolium, inner salt] reagent (Promega, Tokyo, Japan) in accordance with the attached protocol.
Cell growth for 36 hours under serum-free conditions was examined.

DU145 [3] = experiment: WST-1 method, growth of DU145 transfected with siRNA
Experimental: (§2) The human prostate cancer cell line DU145 (purchased from ATCC) was cultured in RPMI1640 medium (in the presence of 10% fetal bovine serum) and used.
(§3) DU145 was transiently transfected with siRNAs against PCA-1 ([…] (SEQ ID NO:4), […] (SEQ ID NO:5), […] (SEQ ID NO:6)) using DharmaFECT 1 (GE Healthcare Bioscience.). Expression suppression and knockdown effects were confirmed by real-time PCR and PCA-1 quantitative ELISA method. Control siRNA ([…] (SEQ ID NO:7)) was purchased from GE Healthcare Bioscience.
Two days after DU145 was transfected with siRNA, the cells were harvested, and 100 μl of the cells were sown to a 96-well plate at 1×10^4/ml. Thereafter, 10 μl of a 1:9 mixture of a 1-methoxy PMS (1-methoxy-5-methylphenazinium.methylsulfate) solution and a WST-1 (2-(4-Iodophenyl)-3-(4-nitrophenyl)-5-(2,4-disulfophenyl)-2H-tetrazolium, monosodium salt) solution was added to each well every 24 hours; 1 hour later, absorbance was measured at 450 nm. As the control wavelength, 630 nm was used. The day of the start of transfection is designated as day 0.

DU145 [4] = experiment: Apoptosis analysis (propidium iodide, flowcytometer) of DU145 transfected with siRNA
Experimental: as §2, §3
After DU145 was transfected with PCA-1 siRNA, the cells were harvested and fixed with ethanol. Thereafter, the cells were stained with propidium iodide, and the ratio of apoptosis cells was analyzed using a flowcytometer.

DU145/PCA-1 [5] = experiment: TRAIL-induced apoptosis analyzed by flowcytometry; conditions: TRAIL 50 ng/ml, 24 hours
Experimental: as §1
TRAIL is drawing attention as a new-generation anticancer agent for prostate cancer, and it has been reported that FLIP acts suppressively on the mechanism therefor.

In the case of `N#CC(=C(/N)Sc1ccccc1N)/C(C#N)=C(\N)Sc1ccccc1N` [U0126], the “effect on the paclitaxel-induced apoptosis inhibitory effect of PCA-1” value (DU145/PCA-1 [1]; DU145/PCA-1, paclitaxel 100 nM, with ERK inhibitor) is reported as “cancelled” and the “effect of pretreatment on EGF-stimulated growth increase of DU145/PCA-1” value (DU145/PCA-1 [2]) is reported as “inhibited (cancelled)”.

“Control siRNA: Control siRNA (auccgcgcgauaguacgua (SEQ ID NO:7)) purchased from GE Healthcare Bioscience (AUCCGCGCGAUAGUACGUA; listed as RNA, chemistry not given here)” was tested, and the “absorbance relative to the absorbance on day 3 written as 1” value (from here on “absorbance relative to the absorbance”) (DU145 [3]; DU145, Day 3) was 1, the “absorbance relative to the absorbance” value (DU145 [3]; DU145, Day 4) was 1.99 and the “absorbance relative to the absorbance” value (DU145 [3]; DU145, Day 5) was 3.98. The “absorbance relative to the absorbance” value (DU145 [3]; DU145, Day 6) was 7.25, the “absorbance relative to the absorbance” value (DU145 [3]; DU145, Day 7) was 11.91 and the “absorbance relative to the absorbance” value (DU145 [3]; DU145, Day 8) was 12.90. The “growth of DU145 over time (in words)” value (DU145 [3]; DU145 transfected cells, WST-1) was “remarkable growth”, the “ratio of apoptosis cells” value (DU145 [4]; DU145, Day 2) was 0.98% and the “ratio of apoptosis cells” value (DU145 [4]; DU145, Day 3) was 1.96%. The “ratio of apoptosis cells” value (DU145 [4]; DU145, Day 4) was 5.00% and the “ratio of apoptosis cells” value (DU145 [4]; DU145, Day 5) was 1.88%.

`CC(=O)O[C@H]1C(=O)[C@@]2(C)[C@H]([C@H](OC(=O)c3ccccc3)[C@]3(O)C[C@H](OC(=O)[C@H](O)[C@@H](NC(=O)c4ccccc4)c4ccccc4)C(C)=C1C3(C)C)[C@]1(OC(C)=O)CO[C@@H]1C[C@@H]2O` [paclitaxel] was tested, and the “paclitaxel-induced apoptosis in DU145/PCA-1 compared with control strain (DU145/Neo)” value (DU145/PCA-1 [1]; paclitaxel 100 nM, 48 hours) was “significantly inhibited”.

B1: TRAIL: tumor necrosis factor-related apoptosis-inducing ligand (protein, UniProt P50591 1-281, looked up)
Tumor necrosis factor ligand …: MAMMEVQGGPSLGQTCVLIVIFTVLLQSLCVAVTYVYFTNELKQMQDKYSKSGIACFLKEDDSYWDPNDEESMNSPCWQVKWQLRQLVRKMILRTSEETISTVQEKQQNISPLVRERGPQRVAAHITGTRGRSNTLSSPNSKNEKALGRKINSWESSRSGHSFLSNLHLRNGELVIHEKGFYYIYSQTYFRFQEEIKENTKNDKQMVQYIYKYTSYPDPILLMKSARNSCWSKDAEYGLYSIYQGGIFELKENDRIFVSVTNEHLIDMDHEASFFGAFLVG
With B1 the “apoptosis induction in DU145/PCA-1 compared with control (DU145/Neo)” value (DU145/PCA-1 [5]) was “significantly inhibited”.
